# Experimental data as given in US20250134875A1, “FORMULATIONS OF ALK-5 KINASE INHIBITORS AND USES THEREOF” (Thirona Bio, Inc., priority 2023, published 2025).
# Experiment: Solubility of Compound 1 in solvents
# Type: physicochemical
# Description: Tables 2 and 3 provide the solubility of the exemplary ALK-5 kinase inhibitor Compound 1 in various solvents.
compound,measurement,setting,value
Cc1cccc(-n2ncc(C)c2-c2cc3cnccc3s2)n1 [Compound 1],solubility,"Cycolmethicone NF, oil or lipid",0.19 mg/mL
same,solubility,"DMSO, organic solvent or mixture",83.7 mg/mL
same,solubility,"Dimethicone 100 CST, oil or lipid",0.11 mg/mL
same,solubility,"PEG 400, organic solvent or mixture",43.9 mg/mL
same,solubility,"PPG-15 stearyl ether, oil or lipid",4.87 mg/mL
same,solubility,"Transcutol (DEGEE), organic solvent or mixture",115 mg/mL
same,solubility,"acetone, organic solvent or mixture",38.3 mg/mL
same,solubility,"benzyl alcohol, organic solvent or mixture",> 300 mg/mL
same,solubility,"diethyl sebacate, oil or lipid",13.1 mg/mL
same,solubility,"diisopropyl adipate, oil or lipid",50.5 mg/mL
same,solubility,"ethanol, organic solvent or mixture",30.8 mg/mL
same,solubility,"hexylene glycol, organic solvent or mixture",50.2 mg/mL
same,solubility,"isopropyl myristate, oil or lipid",3.45 mg/mL
same,solubility,"medium chain triglycerides, oil or lipid",5.31 mg/mL
same,solubility,"mineral oil, oil or lipid",0.54 mg/mL
same,solubility,"octyldodecanol, oil or lipid",5.37 mg/mL
same,solubility,"organic solvent or mixture, Propylene Glycol (PG)",23.7 mg/mL
same,solubility,"phenethyl alcohol, organic solvent or mixture",> 300 mg/mL
same,solubility,"phosphate buffer, pH 6.5, aqueous buffer",0.02 mg/mL
same,solubility,"propylene carbonate, organic solvent or mixture",24.1 mg/mL
same,solubility,"sodium citrate buffer, pH 3, aqueous buffer, Sod.Citrate buffer (pH3)",2.19 mg/mL
same,solubility,"sodium citrate buffer, pH 4, aqueous buffer, Sod.Citrate buffer (pH4)",0.29 mg/mL
same,solubility,"sodium citrate buffer, pH 5, aqueous buffer, Sod.Citrate buffer (pH5)",0.07 mg/mL
same,solubility,water,0.02 mg/mL
